SMILES strings stand for the structures. Values after ≈ are worked out from the molar mass of the structure shown. Where two headings read alike, the source gives them in different places.

The term IC50 denotes the concentration that gives 50% inhibition. For orientation: solubility means the concentration that dissolves in the medium under given conditions. The half-life is the time needed for the level to fall by half in the phase considered. Read a low half-life as fast loss.

Data set [1] is described as follows: in vitro.
The subject of data set [2] is Caco-2. The data set can be described thus: Caco-2 permeability. In kind it is in vitro ADME. An excerpt: Several model systems are available, employing monolayers of various cell types, for evaluation of active transport of pharmaceutically active substances. For example, monolayers of Caco-2 intestinal epithelial cells can be used to evaluate active transport of substances between the intestine and the bloodstream. When plated on a surface which allows the flow of material from apical to basolateral and vice versa, such cells form a biological membrane which can be used to simulate physiological absorption and bio-availability. In another example, mouse brain capillary endothelial cell (MBEC) lines have been established to evaluate active transport in and out of the central nervous system. Another example of such cells is HT29 human colon carcinoma cells. Further, monolayers expressing particular transporter proteins can be established using transfected cells. For example, Sasaki et al (2002) J. Biol. Chem. 8:6497 used a double-transfected Madin-Darby canine kidney cell monolayer to study transport of organic anions.

Data set [3] in a line: Non-specific binding. Format: in vitro ADME.
Data set [4] concerns the target PDE-1. The data set can be described thus: Phosphodiesterase inhibition PDE-1. In kind it is biochemical. Here is the method:
(§1) Phosphodiesterase inhibition was determined by methods known to one of skill in the art.

Data set [5] can be described thus: Cytotox LC50. The conditions noted are these: read-out: Cytotox LC50 Acute.
Data set [6] concerns the target PDE-5 (Bos taurus, UniProt Q28156). Nature of the data set: Phosphodiesterase inhibition PDE-5 bovine. In kind it is biochemical. Here is the method:
as §1

Data set [7] deals with PDE-6. The data set can be described thus: Phosphodiesterase inhibition PDE-6. Format: biochemical. The protocol:
as §1

The target in data set [8] is PDE5 (Homo sapiens, UniProt O76074). The data set can be described thus: Phosphodiesterase inhibition PDE-5 human. Format: biochemical. The protocol:
as §1

Data set [9] in a line: Solubility. In kind it is physicochemical.
In data set [10] the target is PDE-3. Nature of the data set: Phosphodiesterase inhibition PDE-3. Format: biochemical. The protocol:
as §1

Data set [11] in a line: RLM stability T1/2. In kind it is in vitro ADME. The following applies: rat, liver microsomes. In general terms: Microsomes from liver hold many membrane-bound enzymes, among them those of drug oxidation.
A short description of data set [12]: PAMPA permeability. In kind it is in vitro ADME. (In PAMPA a lipid-coated filter parts donor from acceptor wells.)
Data set [13] can be described thus: Cytotox GC50. In kind it is cell-based.
[14] abbreviates: pH 2.7, aqueous buffer, read-out: Solubility pH 2.7.
Setting [15] is: pH 7.4, aqueous buffer, read-out: Solubility pH 7.4.

`CCCc1nc(C)c2c(=O)[nH]c(-c3cc(S(=O)(=O)N(C)C(C)(C)C(=O)N(C)C)ccc3OCC)nn12` [Compound 3]: the CC50 in [1] is no less than 100000 nM; in [5] it was 100000 nM. Moreover, in data set [2], the “Caco-2 AtoB” value is reported as 28.85 10^−6. The “Caco-2 BtoA” value in data set [2] was 58.45 10^−6. In addition, the “Non-Spec Binding” value in data set [3] is 14.3%. Also, the concentration for half-maximal inhibition (IC50) in data set [4] worked out at 10 nM; in [6], 0.138 nM; in [7], 1.7 nM; in data set [8] it was 0.16 nM; in [10] it was 412 nM. Further, the solubility in [9] (setting [14]) and in data set [9] (setting [15]) was greater than 100 µM in each case. Besides, the half-life in [11] was determined as 72.7 min. Further, the “PAMPA Hex” value in [12] was 9.11 10^−6. For the same compound, the “Cytotox GC50” value in data set [13] was 100000 nM.

As for `CCCc1nc(C)c2c(=O)[nH]c(-c3cc(S(=O)(=O)N(C)CC(=O)N(C)C)ccc3OCC)nn12` [Compound 1], the CC50 was 75000 nM in [1] and 100000 nM in [5]. The “Caco-2 AtoB” value in [2] was 17.46 10^−6. The “Caco-2 BtoA” value in data set [2] is 48.88 10^−6. The “Non-Spec Binding” value in data set [3] is 11.07%. Besides, the IC50 in data set [4] was 25 nM; in data set [6], 0.122 nM; in [7], 3.5 nM; in data set [8] it was 0.097 nM; in data set [10] it was 986 nM. Also, the solubility in [9] (setting [14]) is greater than 100 µM; in [9] (setting [15]), 96.1 µM (≈ 47.2 µg/mL). The compound also registered a half-life in [11] of 22 min. In addition, in data set [12], the “PAMPA Hex” value was 5.49 10^−6. Moreover, the “PAMPA Lec” value in [12] (Lec) is given as 0.128 10^−6. For the same compound, the “Cytotox GC50” value in data set [13] was determined as 76700 nM.

In the case of `CCCc1nc(C)c2c(=O)[nH]c(-c3cc(S(=O)(=O)N(C)[C@H](C)C(=O)N(C)C)ccc3OCC)nn12` [Compound 2], the CC50 in [1] was no less than 100000 nM; in data set [5], 100000 nM. The “Caco-2 AtoB” value in [2] is given as 33.33 10^−6. Besides, in data set [2], the “Caco-2 BtoA” value is recorded as 61.33 10^−6. For the same compound, in data set [3], the “Non-Spec Binding” value was 20.7%. Also, the concentration for half-maximal inhibition (IC50) in data set [4] was found to be 13 nM; in data set [6] it was 0.101 nM; in data set [7], 0.605 nM; in data set [8], 0.0395 nM; in data set [10] it was 507 nM. In addition, the solubility in [9] (setting [14]) and in [9] (setting [15]) was greater than 100 µM in each case. In addition, the half-life in data set [11] was determined as 32.6 min. Also, the “PAMPA Hex” value in [12] is reported as 18.2 10^−6. The “Cytotox GC50” value in data set [13] worked out at 94600 nM.

(Values after patent publication US20100093719A1, “PHARMACOKINETICALLY IMPROVED COMPOUNDS” (SURFACE LOGIX, INC., priority 2005, published 2010).)
